# Entries after “also recorded” stand apart in the source; their conditions may differ. Read-outs that look alike come from different tables or passages of the source.
# Experiments:
# Format in all cases: cell-based
# S. aureus = assay: Disc diffusion assay (DDA) of PKZ6 and PKZ18 analogs with S. aureus; conditions: Table 4, 150 μg/ml, ✓ = zone of inhibition observed
# Description: (§1) The identity and purity of both PKZ 6 and 18 was confirmed by mass spectroscopy. Forty commercially available compounds chosen on the basis of initial in silico selections and similarity to our two hits were screened by disc diffusion assay (DDA) to determine their relative antibacterial activity with S. aureus. […] These 14 compounds were further evaluated by minimum inhibitory concentration assays (MIC)^41,42, and minimum bactericidal assays (MBC)^41 to confirm antibacterial activity, determine the concentration at which S. aureus growth is inhibited in liquid culture (MIC) and if they are acting as bacteriostatic or bactericidal agents (MBC). […] Representative embodiments are shown below.
# All compounds were tested at a concentration of 150 μg/ml.
# S. aureus ATCC 29213 [1] = assay: MBC determination
# Description: as §1
# (§2) Following 24 h incubation of these subcultures at 37° C., MBC values were recorded as the lowest compound concentration at which no viable colonies were observed.
# S. aureus ATCC 29213 [2] = assay: Broth microdilution MIC; conditions: for MIC: Staphylococcus aureus, ATCC29213
# Description: as §1
# (§3) Broth microdilution assays^77, 78 were performed with B. subtilis, and S. aureus to determine the lowest compound concentration inhibiting visible growth, i.e., minimum inhibitory concentration (MIC) of the 4 original compounds. […] The insolubility of the fourth compound may account for its lack of antibacterial activity. […] The MICs of each compound are moderate.
# (§4) Strains were grown on trypticase soy agar (TSA) with 5% sheep blood at 37° C. for 24 hours. Five isolated colonies were used to inoculate 5 mL cation-adjusted Mueller-Hinton broth (CAMHB) contained in a 50 mL centrifuge tube. The resulting culture was incubated shaking at 200 rpm for 3 hours at 37° C. and then diluted in CAMHB until its turbidity matched that of a 0.5 McFarland standard (OD625 0.08-0.10). After the culture had been standardized against a 0.5 McFarland standard, it was diluted 1:10 in CAMHB and then 5 μL of this dilution was added to the appropriate wells of a 96-well, flat-bottomed tissue culture plate in which each row contained a twofold dilution series of a particular compound ranging in concentration from 0.25 μg/mL to 512 μg/mL. Each plate also included a sterility control well containing CAMHB to which standardized inoculum was not added and a growth control well containing CAMHB to which 5 μL standardized inoculum was added. […] With the exception of the sterility control well, all wells were inoculated within 15 minutes of inoculum preparation to ensure that the starting concentration of bacteria in each well was approximately 5×10^5 CFU/m L. A Tecan Sunrise microplate absorbance reader was used to measure the OD620 of each well before and after 20 h incubation at 37° C. MIC values were recorded as the lowest compound concentration at which no visible growth was observed after this incubation period.
# E. coli ATCC 25922 [3] = assay: MBC determination; conditions: Table 5 analogs; triplicate experiments; N/O = not observed at concentrations tested (512-0.25 μg/mL)
# Procedure: as §2
# E. coli ATCC 25922 [4] = assay: Broth microdilution MIC (Gram negative specificity control)
# [5] = test system: Human Embryonic Kidney (HEK293) cells; assay: Toxicity on a monolayer of HEK293 cells
# B. cereus ATCC 7064 [6] = assay: Broth microdilution MIC
# B. subtilis BGSC 1A1 [7] = assay: Broth microdilution MIC
# Procedure: as §3, §4
# P. aeruginosa ATCC 27853 = assay: Broth microdilution MIC; conditions: N/O = not observed
# S. pneumoniae ATCC 49619 = assay: Broth microdilution MIC
# E. faecalis ATCC 29212 = assay: Broth microdilution MIC; conditions: N/O = not observed
# B. cereus ATCC 7064 [8] = assay: MBC determination; conditions: Bacillus cereus, ATCC7064, N/O = not observed, read-out: MBC
# Procedure: as §2
# B. subtilis BGSC 1A1 [9] = assay: MBC determination; conditions: Bacillus subtilis, BGSC1A1, IND = indeterminate, read-out: MBC
# Procedure: as §2
# B. subtilis = assay: Disc diffusion assay, growth inhibition of B. subtilis; conditions: Table 1, ✓ = zone of inhibition observed
# Description: The same 20 top binders and 8 additional predicted to interact with the cleft of the tyrRS mRNA Specifier Loop were selected from subsequent docking and preliminary fluorescence data.
# [10] = Table 5 analogs, triplicate experiments, N/O = not observed at concentrations tested (512-0.25 μg/mL)
# [11] = Table 5 analogs, triplicate experiments, N/O = not observed at concentrations tested (512-0.25 μg/mL), read-out: S. aureus MIC
smiles,measurement,setting,value
CC(C)CCNC(=O)c1c(O)n2c3c(cccc3c1=O)CCC2 [Compound 0603],ZOI observed,S. aureus,✓
same,S. aureus (MBC),S. aureus ATCC 29213 [1]; [10],N/O
same,MIC,S. aureus ATCC 29213 [2]; [11],512 mg/L
same,E. coli (MBC),E. coli ATCC 25922 [3],N/O
same,MIC,"E. coli ATCC 25922 [4]; Escherichia coli, ATCC25922, Table 5 analogs, triplicate experiments, N/O = not observed at concentrations tested (512-0.25 μg/mL), read-out: E. coli MIC",512 mg/L
O=C(O)C1C2CCC(C2)C1C(=O)Nc1nc(-c2cccs2)cs1 (centres unmarked) [Compound 1813],ZOI observed,S. aureus,✓
same,S. aureus (MBC),S. aureus ATCC 29213 [1]; [10],N/O (N/O)
same,S. aureus MIC,S. aureus ATCC 29213 [2]; [10],N/O (N/O)
same,E. coli (MBC),E. coli ATCC 25922 [3],N/O (N/O)
same,E. coli MIC,E. coli ATCC 25922 [4]; [10],N/O (N/O)
Cc1sc(NC(=O)C2C3CCC(C3)C2C(=O)O)nc1-c1ccc(C(C)C)cc1 (centres unmarked) [Compound 18],16 hr post exposure % Live,[5]; 32 ug/ml,100%
same,16 hr post exposure Morphology,[5]; 32 ug/ml,Normal
same,24 hr post exposure % Confluent,[5]; 32 ug/ml,90%
same,24 hr post exposure % Live,[5]; 32 ug/ml,100%
same,24 hr post exposure Morphology,[5]; 32 ug/ml,Normal
same,16 hr post exposure % Live,[5]; 64 ug/ml,100%
same,16 hr post exposure Morphology,[5]; 64 ug/ml,Normal
same,24 hr post exposure % Confluent,[5]; 64 ug/ml,90%
same,24 hr post exposure % Live,[5]; 64 ug/ml,90%
same,24 hr post exposure Morphology,[5]; 64 ug/ml,Mix of Normal and Detached
same,16 hr post exposure % Live,[5]; 128 ug/ml,100%
same,16 hr post exposure Morphology,[5]; 128 ug/ml,Normal
same,24 hr post exposure % Confluent,[5]; 128 ug/ml,15%
same,24 hr post exposure % Live,[5]; 128 ug/ml,15%
same,24 hr post exposure Morphology,[5]; 128 ug/ml,Rounded and Detached
same,MIC,"B. cereus ATCC 7064 [6]; Bacillus cereus, ATCC7064, B. cereus ATCC 7064, read-out: MIC",64 mg/L
same,growth inhibition of B. cereus (in words),B. cereus ATCC 7064 [6]; at moderate concentrations,inhibited growth
same,antibacterial activity against B. subtilis (in words),B. subtilis BGSC 1A1 [7],inhibited growth; also recorded: active
same,MIC,"B. subtilis BGSC 1A1 [7]; Bacillus subtilis, BGSC1A1, B. subtilis BGSC 1A1, 20 h at 37° C., read-out: MIC",64 mg/L
same,MIC,P. aeruginosa ATCC 27853,N/O (N/D)
same,MBC,"S. aureus ATCC 29213 [1]; S. aureus ATCC 29213, N/O = not observed",N/O
same,MIC,"S. pneumoniae ATCC 49619; Streptococcus pneumoniae, ATCC49619, S. pneumoniae ATCC 49619, read-out: MIC",64 mg/L
same,growth inhibition of S. pneumoniae (in words),S. pneumoniae ATCC 49619; at moderate concentrations,inhibited growth
same,antibacterial activity against S. aureus (in words),S. aureus ATCC 29213 [2],inhibited growth; also recorded: displayed antibacterial properties
same,MIC,"S. aureus ATCC 29213 [2]; S. aureus ATCC 29213, N/O = not observed, read-out: MIC",64 mg/L
same,MIC,E. faecalis ATCC 29212,N/O (N/D)
same,MBC,B. cereus ATCC 7064 [8],64 mg/L
same,MBC,B. subtilis BGSC 1A1 [9],64 mg/L
same,MIC,"E. coli ATCC 25922 [4]; E. coli ATCC 25922, N/O = not observed",N/O (N/D)
same,antibacterial activity against E. coli (in words),E. coli ATCC 25922 [4]; E. coli negative control without T-box riboswitch,did not inhibit growth
same,ZOI observed,B. subtilis,✓
O=C(NCCNCCO)c1c(O)c2cccc3c2n(c1=O)CCC3 [Compound 0609],ZOI observed,S. aureus,✓
O=C(NCCN1CCNCC1)C1=C(O)C2=CC=CC3CCN(C1=O)C23 (centres unmarked) [Compound 0613],ZOI observed,S. aureus,✓
O=C(O)C1C2CCC(C2)C1C(=O)Nc1nc(-c2ccc(F)cc2F)cs1 (centres unmarked) [Compound 1819],ZOI observed,S. aureus,✓
same,MBC,"S. aureus ATCC 29213 [1]; Staphylococcus aureus, ATCC29213, Table 5 analogs, triplicate experiments, N/O = not observed at concentrations tested (512-0.25 μg/mL), read-out: S. aureus (MBC)",512 mg/L
same,MIC,S. aureus ATCC 29213 [2]; [11],128 mg/L
C[C@@H]1CC[C@@H](C)[C@H](C(=O)Nc2nc(-c3ccc(Cl)cc3Cl)cs2)C1C(=O)O (some centres unmarked) [Compound 1820],ZOI observed,S. aureus,✓
same,S. aureus (MBC),S. aureus ATCC 29213 [1]; [10],N/O
same,MIC,S. aureus ATCC 29213 [2]; [11],64 mg/L
CCCCc1ccc(-c2nc(NC(=O)C3CC=CCC3C(=O)O)sc2C)cc1 (centres unmarked) [Compound 1805],ZOI observed,S. aureus,✓

# Source: patent US10266527B2, “T-box riboswitch-binding anti-bacterial compounds” (THE RESEARCH FOUNDATION FOR THE STATE UNIVERSITY OF NEW YORK, priority 2013, dated 2019)
